Experimental data: ChEMBL document CHEMBL5150036, “Photoredox-based late-stage functionalization in SAR study for in vivo potent glucosylceramide synthase inhibitor” (Bioorg Med Chem Lett, 2022)

Tests used:
[1] = Drug concentration in ICR mouse brain at 10 mg/kg, po measured after 60 mins by LC-MS/MS analysis; assay type: ADME, organism-based; details: read-out: Ct
[2] = Metabolic stability in mouse liver microsomes assessed as intrinsic clearance at 1 uM in the presence of NADPH regenerating system by LC/MS/MS analysis; assay type: ADME, Microsome; details: read-out: CLH
[3] = Unbound drug concentration in ICR mouse plasma at 10 mg/kg, po measured after 60 mins by LC-MS/MS analysis; assay type: ADME, organism-based; details: in vivo, 1 h
[4] = Unbound brain-to-plasma concentration ratio in ICR mouse at 10 mg/kg, po measured after 60 mins by LC-MS/MS analysis; assay type: ADME, organism-based; details: read-out: K(p,uu,brain)
[5] = Unbound drug concentration in ICR mouse brain at 10 mg/kg, po measured after 60 mins by LC-MS/MS analysis; assay type: ADME, organism-based; details: in vivo, 1 h
[6] = 1-Octanol/aqueous buffer partition coefficient, logD of the compound at pH 7.4 by chromatographic method; assay type: physicochemical
[7] = Drug concentration in ICR mouse plasma at 10 mg/kg, po measured after 60 mins by LC-MS/MS analysis; assay type: ADME, organism-based
[8] = Metabolic stability in human liver microsomes assessed as intrinsic clearance at 1 uM in the presence of NADPH regenerating system by LC/MS/MS analysis; assay type: ADME, Microsome; details: read-out: CLH

| concentration at 1 h [1] [ng/g] | microsomal CLint at 1 µM [2] [µL/min/mg] | Cp(f) [3] [nM] | Kp uu at 1 h [4] | Drug uptake(free) [5] [nM] | chromatographic logD [6] | concentration at 1 h [7] [ng/mL] | microsomal CLint at 1 µM [8] [µL/min/mg] | Compound |
| --- | --- | --- | --- | --- | --- | --- | --- | --- |
|  | 1 |  |  |  | 2.69 |  |  | Cc1cc2c(c(-c3ccccc3OCC(F)F)n1)CN(c1ccc(C(C)(C)O)cc1)C2=O |
|  | 12 |  |  |  | 2.37 |  | 40 | CC(C)(O)c1ccc(N2Cc3c(ccnc3-c3ccccc3OCC(F)(F)F)C2=O)cc1 |
|  |  |  |  |  | 2.77 |  | 3 | CC(C)(O)c1ccc(N2Cc3c(cc(C(C)(C)O)nc3-c3ccccc3OCC(F)F)C2=O)cc1 |
|  |  |  |  |  | 1.85 |  |  | CN(C)C(=O)c1cc2c(c(-c3ccccc3OCC(F)F)n1)CN(c1ccc(C(C)(C)O)cc1)C2=O |
|  | 1 |  |  |  | 3.69 |  |  | CC(C)(O)c1ccc(N2Cc3c(cc(C(C)(C)F)nc3-c3ccccc3OCC(F)F)C2=O)cc1 |
|  |  |  |  |  | 2.86 |  |  | CC(C)(O)c1ccc(N2Cc3c(cc(C(F)F)nc3-c3ccccc3OCC(F)F)C2=O)cc1 |
|  | 27 |  |  |  | 2.2 |  | 17 | CC(C)(O)c1ccc(N2Cc3c(ccnc3-c3ccccc3OCC(F)F)C2=O)cc1 |

The next lines start with the compound.

| Compound | concentration at 1 h [1] [ng/g] | microsomal CLint at 1 µM [2] [µL/min/mg] | Cp(f) [3] [nM] | Kp uu at 1 h [4] | Drug uptake(free) [5] [nM] | chromatographic logD [6] | concentration at 1 h [7] [ng/mL] | microsomal CLint at 1 µM [8] [µL/min/mg] |
| --- | --- | --- | --- | --- | --- | --- | --- | --- |
| Cc1cc2c(c(-c3ccccc3OCC(F)(F)F)n1)CN(c1ccc(C(C)(C)O)cc1)C2=O | 1140 | 4 | 387 | 0.11 | 43 | 2.85 | 1940 |  |
| CC(C)(O)c1ccc(N2Cc3c(cc(C4(C)COC4)nc3-c3ccccc3OCC(F)(F)F)C2=O)cc1 | 17 | 52 | 17 | 0.04 | 0.7 | 2.9 | 76 | 33 |
| CC(C)(O)c1ccc(N2Cc3c(cc(C4CCOCC4)nc3-c3ccccc3OCC(F)F)C2=O)cc1 |  | 5 |  |  |  | 2.98 |  | 1 |
| CC(C)(O)c1ccc(N2Cc3c(cc(C4CCCCC4)nc3-c3ccccc3OCC(F)F)C2=O)cc1 |  | 56 |  |  |  | 4.63 |  | 33 |
| CC(C)(O)c1ccc(N2Cc3c(cc(C4(C)COC4)nc3-c3ccccc3OCC(F)F)C2=O)cc1 | 65 | 32 | 124 | 0.03 | 3.9 | 2.76 | 284 | 16 |
| CC(C)(O)c1ccc(N2Cc3c(cc(C4CCCOC4)nc3-c3ccccc3OCC(F)F)C2=O)cc1 (racemic) |  | 46 |  |  |  | 3.19 |  | 61 |
